The subject of one data set is BPH. As to conditions: longer term studies; cited from earlier work.
For data set [1], the system named is bladder outlet obstruction (BOO) due to benign prostatic hypertrophy (BPH). Put plainly: Case observation of one patient with BOO due to BPH (self-catheterization frequency, urine flow, PSA, prostate size). Format: in vivo. The procedure: A patient suffering from BOO due to BPH was experiencing increasing symptoms of BOO from 2018 to 2022 in addition to increasing levels of prostate specific antigen (PSA). This patient preferred the occasional self-catheterization to surgical treatment of the BPH. From 2018 to 2021 the self-catheterization frequency associated with 8 mg of silodosin (an alpha-1 antagonist/blocker) orally daily was about once every 6 months. […] By January 2022, the self-catheterization was weekly. The patient commented that most of the times self-catheterization was necessary, followed a decreased intake of spicy foods, which were an almost daily ingestion for this patient. The patient was instructed to ingest 40,000 SHU (Scoville Heat Units) daily in the form of a cayenne nutraceutical capsule obtained over the counter (OTC) at a pharmacy. The cayenne capsule is a powder of ground chili pepper with a claimed total capsinoid activity of 40,000 SHU resulting from the mixture of capsinoid chemicals in the pepper. […] These clinical findings are consistent with the dramatic improvement in BOO following treatment with oral capsinoids.

As for `COc1cc2nc(N3CCN(C(=O)C4COc5ccccc5O4)CC3)nc(N)c2cc1OC` (stereo not drawn) [doxazosin], the “urinary flow rates and subjective symptom scores” value in the data set with BPH was “significant improvements”.

With `O=C(NC1CCN(CCc2c[nH]c3ccccc23)CC1)c1ccccc1` [indoramin], in the data set on BPH, the “urinary flow rates and subjective symptom scores” value is recorded as “significant improvements”.

Turning to `COc1cc2nc(N3CCN(C(=O)c4ccco4)CC3)nc(N)c2cc1OC` [prazosin], in the data set with BPH, the “urinary flow rates and subjective symptom scores” value is listed as “significant improvements”.

Take `C[C@H](Cc1cc2c(c(C(N)=O)c1)N(CCCO)CC2)NCCOc1ccccc1OCC(F)(F)F` [silodosin]: the adverse event result in data set [1] (silodosin 8 mg orally daily, led to dose decrease to 4 mg) was “severe cardiovascular adverse event”. For the same molecule, the self-catheterization frequency entry in data set [1] (silodosin dose decreased to 4 mg, by January 2022) is on record as “weekly”.

For `COc1cc2nc(N3CCN(C(=O)C4CCCO4)CC3)nc(N)c2cc1OC` (stereo not drawn) [terazosin], in the data set with BPH, the “urinary flow rates and subjective symptom scores” value is given as “significant improvements”.

These data come from US12274680B2, “Treatment of benign prostatic hypertrophy with capsinoids” (priority 2022, dated 2025).
